# Laboratory results from patent US20110312934A1, “2-ALKYL-6-CYCLOAMINO-3-(PYRIDIN-4-YL)IMIDAZO[1,2-B]-PYRIDAZINE DERIVATIVES, PREPARATION THEREOF, AND THERAPEUTIC APPLICATION THEREOF” (SANOFI-AVENTIS, priority 2008, published 2011).
# What was measured:
# [1] = biological target: T1, casein kinase 1 epsilon (CK1 epsilon) (Homo sapiens, UniProt P49674); experiment: Filter-plate assay of ATP-33P, inhibition of phosphorylation of casein by CK1 epsilon; type: biochemical; details: ATP-33P filtration, cold ATP 10 μM final, 2 hours at ambient temperature, read-out: CK1 epsilon Cl50
# T1 construct: Invitrogen Corporation (alternative)
# Experimental: The capacity of the compounds of the invention to inhibit the phosphorylation of casein by casein kinase 1 epsilon and delta may be evaluated according to the procedure described in US 2005/0131012.
# Filter-Plate Assay of ATP-^33P for the Screening of CK1 Epsilon Inhibitors:
# The effect of the compounds on inhibition of the phosphorylation of casein by the enzyme casein kinase 1 epsilon (CK1 epsilon) is measured, using a casein assay with filtration of ATP-^33P in vitro.
# Casein kinase 1 epsilon (0.58 mg/ml) is obtained via fermentation and purification processes performed according to methods that are well known to those skilled in the art, or may also be obtained from Invitrogen Corporation™ (human CK1 epsilon).
# The compounds are tested at five different concentrations so as to generate IC50 values, i.e. the concentration at which a compound is capable of inhibiting the enzymatic activity by 50%, or alternatively the percentage of inhibition at a concentration of 10 micromolar.
# “U”-bottomed Falcon plates are prepared by placing 5 μl of solutions of the compounds according to the invention at concentrations of 10, 1, 0.1, 0.01 or 0.001 μM in different wells. The solutions of the compounds according to the invention at these various concentrations are prepared by diluting in a test buffer (50 mM Tris, pH 7.5, […], 2 mM DTT and 1 mM EGTA) a stock solution in DMSO at a concentration of 10 mM. Next, 5 μl of dephosphorylated casein are added to a final concentration of 0.2 μg/μl, 20 μl of CK1 epsilon to a final concentration of 3 ng/μl, and 20 μl of ATP-^33P to a final concentration of 0.02 μCi/μl mixed with cold ATP (10 μM final—approximately 2×10^6 CPM per well). The final total test volume per well is equal to 50 μl.
# The “U”-bottomed Falcon® test plate mentioned above is vortexed, and then incubated at ambient temperature for 2 hours. After 2 hours, the reaction is stopped by adding an ice-cold solution of 65 μl of ATP (2 mM) prepared in test buffer.
# 100 μl of the reaction mixture are then transferred from the “U”-bottomed Falcon® plate into Millipore® MAPH filter plates, preimpregnated with 25 μl of ice-cold 100% TCA. […]
# The plates are left to dry overnight at ambient temperature. […] The radiation emitted by each well is then measured for 2 minutes in a Packard® Topcount NXT scintillation counter, in which the values of CPM/well are measured.
# The percentage inhibition of the capacity of the enzyme to phosphorylate the substrate (casein) is determined for each concentration of compound tested. These inhibition data expressed as percentages are used to calculate the IC50 value for each compound compared with the controls.
# The kinetic studies determined the KM value for ATP as being 21 μM in this test system.
# human CK1 delta = biological target: T2, human CK1 delta (Homo sapiens, UniProt P48730); experiment: FRET Z'Lyte kinase assay, CK1 delta; type: biochemical; details: peptide substrate SER/THR 11 2 μM, ATP 4 times the KM, read-out: CK1 delta Cl50
# T2 construct: purchased Invitrogen Corporation PV3665
# From the text: The capacity of the compounds of the invention to inhibit the phosphorylation of casein by casein kinase 1 epsilon and delta may be evaluated using a FRET (Fluorescence Resonance Energy Transfer) fluorescence test with the aid of the Z'Lyte™ kinase assay Kit (reference PV3670; Invitrogen Corporation™) according to the manufacturer's instructions.
# The casein kinases 1 used are obtained from Invitrogen Corporation (human CK1 epsilon PV3500 and human CK1 delta PV3665).
# A peptide substrate, labelled at both ends with a fluorophore donor group (coumarin) and a fluorophore acceptor group (fluorescein), constituting a FRET system is phosphorylated in the presence of ATP by casein kinase 1 epsilon or delta in the presence of increasing concentrations of compounds of the invention.
# The mixture is treated with a site-specific protease that specifically cleaves the peptide substrate to form two fluorescent fragments having a large fluorescence emission ratio.
# The fluorescence observed is thus related to the capacity of the products of the invention to inhibit the phosphorylation of the peptide substrate by casein kinase 1 epsilon or casein kinase 1 delta. […]
# The emitted fluorescence is measured at wavelengths of 445 and 520 nm (excitation at 400 nm).
# T1 sequence (P49674 whole entry): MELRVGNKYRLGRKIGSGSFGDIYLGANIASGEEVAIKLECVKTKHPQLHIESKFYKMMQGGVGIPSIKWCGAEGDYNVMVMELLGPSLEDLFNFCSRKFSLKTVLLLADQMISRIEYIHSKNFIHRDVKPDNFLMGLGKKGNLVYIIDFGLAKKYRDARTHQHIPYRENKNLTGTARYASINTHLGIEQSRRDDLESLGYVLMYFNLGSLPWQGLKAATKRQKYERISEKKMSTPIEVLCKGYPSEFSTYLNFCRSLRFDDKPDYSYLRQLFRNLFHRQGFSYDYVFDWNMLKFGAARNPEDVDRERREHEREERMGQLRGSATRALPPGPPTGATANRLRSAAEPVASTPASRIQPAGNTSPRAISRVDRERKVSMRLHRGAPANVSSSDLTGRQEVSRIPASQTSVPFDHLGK
# T2 sequence (P48730 whole entry): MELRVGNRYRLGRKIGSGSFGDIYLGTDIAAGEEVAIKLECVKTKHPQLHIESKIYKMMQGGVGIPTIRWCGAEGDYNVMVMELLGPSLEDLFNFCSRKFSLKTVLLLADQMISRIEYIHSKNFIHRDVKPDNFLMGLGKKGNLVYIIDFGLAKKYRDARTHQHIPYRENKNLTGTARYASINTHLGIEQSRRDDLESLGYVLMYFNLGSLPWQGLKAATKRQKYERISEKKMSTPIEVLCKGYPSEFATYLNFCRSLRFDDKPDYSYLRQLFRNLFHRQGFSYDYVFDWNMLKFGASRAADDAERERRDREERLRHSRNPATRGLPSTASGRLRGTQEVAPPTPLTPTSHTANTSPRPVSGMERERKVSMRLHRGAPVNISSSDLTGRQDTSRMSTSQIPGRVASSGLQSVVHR
smiles,measurement,setting,value
"Cc1nc2ccc(N3CCNCC3)nn2c1-c1ccncc1 [Compound 1, 2-Methyl-6-piperazin-1-yl-3-pyridin-4-yl-imidazo[1,2-b]pyridazine]",IC50,[1],57 nM
same,IC50,human CK1 delta,< 1 nM
